In US11192877B2, “3-(5-hydroxy-1-oxoisoindolin-2-yl)piperidine-2,6-dione derivatives and uses thereof” (Novartis AG, priority 2018, dated 2021):

Target: IKZF2 (Helios) (Homo sapiens, UniProt Q96SW2+Q9UKS7)
Test: Prolabel quantification of IKZF2 protein levels in 293GT cells
Format: cell-based
Conditions: 24 h, Pro-label assay, 293GT cells, 10 μM, read-out: IKZF2 % protein reduction at 10 μM, 24 h

IKZF2 (Helios), sequence (Q9UKS7 whole entry): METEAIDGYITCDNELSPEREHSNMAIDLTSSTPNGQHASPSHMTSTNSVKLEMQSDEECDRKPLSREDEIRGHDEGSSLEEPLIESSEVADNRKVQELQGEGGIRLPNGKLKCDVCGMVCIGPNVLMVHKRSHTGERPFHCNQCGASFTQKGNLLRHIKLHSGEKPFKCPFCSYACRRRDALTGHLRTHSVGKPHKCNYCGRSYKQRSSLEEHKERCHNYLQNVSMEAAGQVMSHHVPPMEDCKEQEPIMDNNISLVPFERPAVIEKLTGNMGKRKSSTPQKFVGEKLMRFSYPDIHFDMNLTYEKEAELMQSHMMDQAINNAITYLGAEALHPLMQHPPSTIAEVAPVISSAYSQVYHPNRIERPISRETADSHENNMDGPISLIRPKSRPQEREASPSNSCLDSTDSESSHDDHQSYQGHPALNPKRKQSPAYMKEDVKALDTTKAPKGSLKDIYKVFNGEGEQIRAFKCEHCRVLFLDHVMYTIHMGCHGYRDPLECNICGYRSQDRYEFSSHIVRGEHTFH
IKZF2 (Helios), sequence (Q96SW2 whole entry): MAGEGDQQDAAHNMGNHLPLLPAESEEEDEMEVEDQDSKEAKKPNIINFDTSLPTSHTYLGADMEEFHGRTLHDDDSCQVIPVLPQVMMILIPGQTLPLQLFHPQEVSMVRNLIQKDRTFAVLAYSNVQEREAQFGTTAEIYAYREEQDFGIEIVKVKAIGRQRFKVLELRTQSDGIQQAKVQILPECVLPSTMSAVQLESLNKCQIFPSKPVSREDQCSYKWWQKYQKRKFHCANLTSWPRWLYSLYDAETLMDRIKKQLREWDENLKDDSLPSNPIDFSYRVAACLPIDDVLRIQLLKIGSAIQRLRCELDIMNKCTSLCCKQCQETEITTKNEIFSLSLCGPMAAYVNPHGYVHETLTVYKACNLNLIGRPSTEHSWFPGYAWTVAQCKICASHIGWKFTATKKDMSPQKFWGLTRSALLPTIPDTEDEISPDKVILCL
IKZF2 (Helios), sequence (Q16531 whole entry partner): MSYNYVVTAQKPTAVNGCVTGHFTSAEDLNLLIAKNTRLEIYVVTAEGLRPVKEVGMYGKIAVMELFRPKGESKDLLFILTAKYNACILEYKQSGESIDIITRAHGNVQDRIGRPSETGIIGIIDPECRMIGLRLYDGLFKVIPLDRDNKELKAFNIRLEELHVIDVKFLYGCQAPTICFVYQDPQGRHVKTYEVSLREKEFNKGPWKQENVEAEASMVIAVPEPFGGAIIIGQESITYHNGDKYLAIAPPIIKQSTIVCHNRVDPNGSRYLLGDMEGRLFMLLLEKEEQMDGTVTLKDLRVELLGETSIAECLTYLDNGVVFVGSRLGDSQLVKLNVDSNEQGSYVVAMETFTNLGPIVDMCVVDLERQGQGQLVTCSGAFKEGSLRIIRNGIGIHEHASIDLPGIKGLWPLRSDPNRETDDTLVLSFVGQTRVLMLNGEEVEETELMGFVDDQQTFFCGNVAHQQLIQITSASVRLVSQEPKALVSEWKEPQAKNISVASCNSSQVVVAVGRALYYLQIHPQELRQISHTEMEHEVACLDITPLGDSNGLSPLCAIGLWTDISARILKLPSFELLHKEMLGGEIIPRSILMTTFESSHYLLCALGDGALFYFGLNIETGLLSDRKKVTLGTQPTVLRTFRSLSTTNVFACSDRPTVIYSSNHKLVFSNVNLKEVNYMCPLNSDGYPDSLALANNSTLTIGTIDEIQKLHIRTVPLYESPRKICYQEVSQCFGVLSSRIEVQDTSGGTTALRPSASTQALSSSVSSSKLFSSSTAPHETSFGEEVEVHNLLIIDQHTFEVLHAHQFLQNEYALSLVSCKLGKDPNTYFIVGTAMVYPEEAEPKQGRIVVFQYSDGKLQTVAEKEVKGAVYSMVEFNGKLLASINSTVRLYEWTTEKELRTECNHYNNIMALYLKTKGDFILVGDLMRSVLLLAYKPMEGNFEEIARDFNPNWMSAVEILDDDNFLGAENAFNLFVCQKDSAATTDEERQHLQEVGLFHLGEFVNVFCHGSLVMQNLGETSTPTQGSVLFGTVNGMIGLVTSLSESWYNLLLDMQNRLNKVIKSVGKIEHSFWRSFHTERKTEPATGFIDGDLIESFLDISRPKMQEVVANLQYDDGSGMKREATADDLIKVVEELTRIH

| Structure (SMILES) | IKZF2 % protein reduction at 10 µM |
| --- | --- |
| O=C1CCC(N2Cc3cc(O[C@H]4CCC[C@@H]4N4CCC(O)CC4)ccc3C2=O)C(=O)N1 (stereo partly drawn) [I-96, 3-(5-(((1S,2S)-2-(4-hydroxypiperidin-1-yl)cyclopentyl)oxy)-1-oxoisoindolin-2-yl)piperidine-2,6-dione] | 81% |
| O=C1CCC(N2Cc3cc(O[C@H]4CCCC[C@@H]4N4CCCCC4)ccc3C2=O)C(=O)N1 (stereo partly drawn) [I-97, 3-(1-oxo-5-(((1S,2S)-2-(piperidin-1-yl)cyclohexyl)oxy)isoindolin-2-yl)piperidine-2,6-dione] | 36% |
| O=C1CCC(N2Cc3cc(O[C@H]4CCCC[C@@H]4NCc4cncnc4)ccc3C2=O)C(=O)N1 (stereo partly drawn) [I-103, 3-(1-oxo-5-(((1S,2S)-2-((pyrimidin-5-ylmethyl)amino)cyclohexyl)oxy)isoindolin-2-yl)piperidine-2,6-dione] | 54% |
| O=C1CCC(N2Cc3cc(O[C@H]4CCCC[C@@H]4N4CCC5(CC4)COC5)ccc3C2=O)C(=O)N1 (stereo partly drawn) [I-105, 3-(5-(((1S,2S)-2-(2-oxa-7-azaspiro[3.5]nonan-7-yl)cyclohexyl)oxy)-1-oxoisoindolin-2-yl)piperidine-2,6-dione] | 52% |
| O=C1CCC(N2Cc3cc(O[C@H]4CCCC[C@@H]4N4CC(Oc5ccccc5Cl)C4)ccc3C2=O)C(=O)N1 (stereo partly drawn) [I-112, 3-(5-(((1S,2S)-2-(3-(2-chlorophenoxy)azetidin-1-yl)cyclohexyl)oxy)-1-oxoisoindolin-2-yl)piperidine-2,6-dione] | 95% |
| COc1ccccc1OC1CN([C@H]2CCCC[C@@H]2Oc2ccc3c(c2)CN(C2CCC(=O)NC2=O)C3=O)C1 (stereo partly drawn) [I-113, 3-(5-(((1S,2S)-2-(3-(2-methoxyphenoxy)azetidin-1-yl)cyclohexyl)oxy)-1-oxoisoindolin-2-yl)piperidine-2,6-dione] | 93% |
| O=C1CCC(N2Cc3cc(O[C@H]4CCCC[C@@H]4NCc4cnc5ccnn5c4)ccc3C2=O)C(=O)N1 (stereo partly drawn) [I-114, 3-(1-oxo-5-(((1S,2S)-2-((pyrazolo[1,5-a]pyrimidin-6-ylmethyl)amino)cyclohexyl)oxy)isoindolin-2-yl)piperidine-2,6-dione] | 54% |
| O=C1CCC(N2Cc3cc(O[C@H]4CCCC[C@@H]4NCc4ccc(F)cc4F)ccc3C2=O)C(=O)N1 (stereo partly drawn) [I-116, 3-(5-(((1S,2S)-2-((2,4-difluorobenzyl)amino)cyclohexyl)oxy)-1-oxoisoindolin-2-yl)piperidine-2,6-dione] | 65% |
| O=C1CCC(N2Cc3cc(O[C@H]4CCCC[C@@H]4N4CC(Oc5cccc(F)c5)C4)ccc3C2=O)C(=O)N1 (stereo partly drawn) [I-121, 3-(5-(((1S,2S)-2-(3-(3-fluorophenoxy)azetidin-1-yl)cyclohexyl)oxy)-1-oxoisoindolin-2-yl)piperidine-2,6-dione] | 94% |
| CN(Cc1ccc(C#N)cc1)[C@H]1CCCC[C@@H]1Oc1ccc2c(c1)CN(C1CCC(=O)NC1=O)C2=O (stereo partly drawn) [I-130, 4-((((1S,2S)-2-((2-(2,6-dioxopiperidin-3-yl)-1-oxoisoindolin-5-yl)oxy)cyclohexyl)(methyl)amino)methyl)benzonitrile] | 50% |
| O=C1CCC(N2Cc3cc(O[C@H]4CCCC[C@@H]4N4CC(Oc5cccnc5)C4)ccc3C2=O)C(=O)N1 (stereo partly drawn) [I-135, 3-(1-oxo-5-(((1S,2S)-2-(3-(pyridin-3-yloxy)azetidin-1-yl)cyclohexyl)oxy)isoindolin-2-yl)piperidine-2,6-dione] | 92% |
| CCN(CC12CC(F)(C1)C2)[C@H]1CCC[C@@H]1Oc1ccc2c(c1)CN(C1CCC(=O)NC1=O)C2=O (stereo partly drawn) [I-136, 3-(5-(((1S,2S)-2-(ethyl((3-fluorobicyclo[1.1.1]pentan-1-yl)methyl)amino)cyclopentyl)oxy)-1-oxoisoindolin-2-yl)piperidine-2,6-dione] | 58% |
| O=C1CCN([C@H]2CCC[C@@H]2Oc2ccc3c(c2)CN(C2CCC(=O)NC2=O)C3=O)CC1 (stereo partly drawn) [I-137, 3-(1-oxo-5-(((1S,2S)-2-(4-oxopiperidin-1-yl)cyclopentyl)oxy)isoindolin-2-yl)piperidine-2,6-dione] | 80% |
| CC1(O)CCN([C@H]2CCC[C@@H]2Oc2ccc3c(c2)CN(C2CCC(=O)NC2=O)C3=O)CC1 (stereo partly drawn) [I-138, 3-(5-(((1S,2S)-2-(4-hydroxy-4-methylpiperidin-1-yl)cyclopentyl)oxy)-1-oxoisoindolin-2-yl)piperidine-2,6-dione] | 83% |
| O=C1CCC(N2Cc3cc(O[C@H]4CCC[C@@H]4N4CCC(O)C4)ccc3C2=O)C(=O)N1 (stereo partly drawn) [I-139, 3-(5-(((1S,2S)-2-(3-hydroxypyrrolidin-1-yl)cyclopentyl)oxy)-1-oxoisoindolin-2-yl)piperidine-2,6-dione] | 83% |

The next lines start with the values.

| IKZF2 % protein reduction at 10 µM | Structure (SMILES) |
| --- | --- |
| 84% | CC1(C#N)CC(CNC2CCCCC2Oc2ccc3c(c2)CN(C2CCC(=O)NC2=O)C3=O)C1 [I-95, (1R,3s)-3-((((1S,2S)-2-((2-(2,6-dioxopiperidin-3-yl)-1-oxoisoindolin-5-yl)oxy)cyclohexyl)amino)methyl)-1-methylcyclobutane-1-carbonitrile] |
| 80% | O=C1CCC(N2Cc3cc(O[C@H]4CCCC[C@@H]4NCC4CCOCC4)ccc3C2=O)C(=O)N1 (stereo partly drawn) [I-98, 3-(1-oxo-5-(((1S,2S)-2-(((tetrahydro-2H-pyran-4-yl)methyl)amino)cyclohexyl)oxy)isoindolin-2-yl)piperidine-2,6-dione] |
| 73% | CO[C@H]1CC[C@H](CN[C@H]2CCCC[C@@H]2Oc2ccc3c(c2)CN(C2CCC(=O)NC2=O)C3=O)CC1 (stereo partly drawn) [I-101, 3-(5-(((1S,2S)-2-((((1r,4S)-4-methoxycyclohexyl)methyl)amino)cyclohexyl)oxy)-1-oxoisoindolin-2-yl)piperidine-2,6-dione] |
| 73% | CC1(CN[C@H]2CCCC[C@@H]2Oc2ccc3c(c2)CN(C2CCC(=O)NC2=O)C3=O)CCOCC1 (stereo partly drawn) [I-102, 3-(5-(((1S,2S)-2-(((4-methyltetrahydro-2H-pyran-4-yl)methyl)amino)cyclohexyl)oxy)-1-oxoisoindolin-2-yl)piperidine-2,6-dione] |
| 87% | O=C1CCC(N2Cc3cc(O[C@H]4CCCC[C@@H]4NCCC4CCOCC4)ccc3C2=O)C(=O)N1 (stereo partly drawn) [I-104, 3-(1-oxo-5-(((1S,2S)-2-((2-(tetrahydro-2H-pyran-4-yl)ethyl)amino)cyclohexyl)oxy)isoindolin-2-yl)piperidine-2,6-dione] |
| 51% | COC1(CN[C@H]2CCCC[C@@H]2Oc2ccc3c(c2)CN(C2CCC(=O)NC2=O)C3=O)CCOCC1 (stereo partly drawn) [I-106, 3-(5-(((1S,2S)-2-(((4-methoxytetrahydro-2H-pyran-4-yl)methyl)amino)cyclohexyl)oxy)-1-oxoisoindolin-2-yl)piperidine-2,6-dione] |
| 89% | CC1(C)CC(CN[C@H]2CCCC[C@@H]2Oc2ccc3c(c2)CN(C2CCC(=O)NC2=O)C3=O)CCO1 (stereo partly drawn) [I-107, 3-(5-(((1S,2S)-2-(((2,2-dimethyltetrahydro-2H-pyran-4-yl)methyl)amino)cyclohexyl)oxy)-1-oxoisoindolin-2-yl)piperidine-2,6-dione] |
| 89% | O=C1CCC(N2Cc3cc(O[C@H]4CCCC[C@@H]4NC4CC5(CCOCC5)C4)ccc3C2=O)C(=O)N1 (stereo partly drawn) [I-110, 3-(5-(((1S,2S)-2-((7-oxaspiro[3.5]nonan-2-yl)amino)cyclohexyl)oxy)-1-oxoisoindolin-2-yl)piperidine-2,6-dione] |
| 59% | N#CC1(CN[C@H]2CCCC[C@@H]2Oc2ccc3c(c2)CN(C2CCC(=O)NC2=O)C3=O)CCC1 (stereo partly drawn) [I-111, 1-((((1S,2S)-2-((2-(2,6-dioxopiperidin-3-yl)-1-oxoisoindolin-5-yl)oxy)cyclohexyl)amino)methyl)cyclobutane-1-carbonitrile] |
| 90% | O=C1CCC(N2Cc3cc(O[C@H]4CCCC[C@@H]4NC4CCC(F)(F)CC4)ccc3C2=O)C(=O)N1 (stereo partly drawn) [I-115, 3-(5-(((1S,2S)-2-((4,4-difluorocyclohexyl)amino)cyclohexyl)oxy)-1-oxoisoindolin-2-yl)piperidine-2,6-dione] |
| 66% | N#CC12CC(CN[C@H]3CCCC[C@@H]3Oc3ccc4c(c3)CN(C3CCC(=O)NC3=O)C4=O)(C1)C2 (stereo partly drawn) [I-120, 3-((((1S,2S)-2-((2-(2,6-dioxopiperidin-3-yl)-1-oxoisoindolin-5-yl)oxy)cyclohexyl)amino)methyl)bicyclo[1.1.1]pentane-1-carbonitrile] |
| 84% | O=C1CCC(N2Cc3cc(O[C@H]4CCCC[C@@H]4NCC4CC(F)(F)C4)ccc3C2=O)C(=O)N1 (stereo partly drawn) [I-122, 3-(5-(((1S,2S)-2-(((3,3-difluorocyclobutyl)methyl)amino)cyclohexyl)oxy)-1-oxoisoindolin-2-yl)piperidine-2,6-dione] |
| 82% | COC1CCC(CN[C@H]2CCCC[C@@H]2Oc2ccc3c(c2)CN(C2CCC(=O)NC2=O)C3=O)CC1 (stereo partly drawn) [I-123, 3-(5-(((1S,2S)-2-(((4-methoxycyclohexyl)methyl)amino)cyclohexyl)oxy)-1-oxoisoindolin-2-yl)piperidine-2,6-dione] |
| 70% | N#Cc1ccc(CN[C@H]2CCCC[C@@H]2Oc2ccc3c(c2)CN(C2CCC(=O)NC2=O)C3=O)cc1 (stereo partly drawn) [I-129, 4-((((1S,2S)-2-((2-(2,6-dioxopiperidin-3-yl)-1-oxoisoindolin-5-yl)oxy)cyclohexyl)amino)methyl)benzonitrile] |
| 91% | CC(C)N[C@H]1CCCC[C@@H]1Oc1ccc2c(c1)CN(C1CCC(=O)NC1=O)C2=O (stereo partly drawn) [I-131, 3-(5-(((1S,2S)-2-(isopropylamino)cyclohexyl)oxy)-1-oxoisoindolin-2-yl)piperidine-2,6-dione] |
| 80% | N#Cc1cccc(CN[C@H]2CCCC[C@@H]2Oc2ccc3c(c2)CN(C2CCC(=O)NC2=O)C3=O)c1 (stereo partly drawn) [I-132, 3-((((1S,2S)-2-((2-(2,6-dioxopiperidin-3-yl)-1-oxoisoindolin-5-yl)oxy)cyclohexyl)amino)methyl)benzonitrile] |
| 81% | O=C1CCC(N2Cc3cc(O[C@H]4CCCC[C@@H]4NCC45CC(F)(C4)C5)ccc3C2=O)C(=O)N1 (stereo partly drawn) [I-133, 3-(5-(((1S,2S)-2-(((3-fluorobicyclo[1.1.1]pentan-1-yl)methyl)amino)cyclohexyl)oxy)-1-oxoisoindolin-2-yl)piperidine-2,6-dione] |
